Test results from ChEMBL document CHEMBL4266031, “Total Synthesis of Violaceoid A and (-)- and (+)-Violaceoid B” (2018).

How the values were obtained:
Hs-578T = experiment: Antiproliferative activity against human Hs 578T cells after 48 hrs by WST8 assay; type: functional
MCF7 = experiment: Antiproliferative activity against human MCF7 cells after 48 hrs by WST8 assay; type: functional; conditions: for GI50: MCF7, 48 h

Row | GI50 (MCF7) [µM] | Compound | GI50 (Hs-578T) [µM] | Activity (Hs-578T) | Activity (MCF7)
1 | > 100 | CCCCCC[C@H](O)c1c(O)ccc(O)c1CO | > 100 |  | 
2 | 61.5 | CCCCC/C=C/c1c(O)ccc(O)c1CO | 59.7 | Dose-dependent effect | Dose-dependent effect
3 | > 100 | CCCCCC[C@@H](O)c1c(O)ccc(O)c1CO | > 100 |  | 
